# Laboratory results published in patent EP0906335B1, “EBV TYPE B CTL EPITOPES” (THE COUNCIL OF THE QUEENSLAND INSTITUTE OF MEDICAL RESEARCH, priority 1996, dated 2008).
# Tested on: autologous PHA blasts
# Experiment: CTL assay of type B specific culture B5 against overlapping EBNA-6B peptides (epitope mapping)
# Type: cell-based
# Conditions: peptides preincubated with autologous PHA blasts; Fig. 3a, 3b
# Protocol: Assessment of peptide specific activity.
# The type B specific culture B5 recognised the peptide corresponding to EBNA-6B residues 210-229 (peptide 12 of the EBNA-6B set) when assayed against individual 20-mer overlapping peptides preincubated with autologous PHA blasts (Fig. 3a). […] The corresponding peptide from the type A overlapping sequence was not recognised by this culture, thus confirming the type B specificity of these T cells.
row,Substance,recognition by type B specific culture B5
1,peptide 12: 20-mer overlapping peptide corresponding to EBNA-6B residues 210-229,recognised

# Tested on: HLA
# Experiment: not given
# Conditions: Table 4, from the cited reference; cited from earlier work
row,Substance,HLA Restriction
1,TSLYNLRRGTALA,HLA DR1
2,SVRDRLARL,HLA A2
3,DEPASTEPVHDQLL,HLA A11
4,QPRAPIRPI,HLA B7
5,RPPIFIRRL,HLA B7
6,KEHVIQNAF,HLA B44
7,VEITPYKPTW,HLA B44
8,CLGGLLTMV,HLA A2
9,LPGPQVTAVLLHEES,HLA A11
10,EENLLDFVRF,HLA B44
11,RRRWRRLTV,HLA B27
12,DTPLIPLTIF,HLA B51/A2
13,VSFIEFVGW,HLA B57
14,TVFYNIPPNIPL,HLA DQ2
15,FLRGRAYGL,HLA B8
16,RLRAEAGVK,HLA A3
17,NPTQAPVIQLVHAVY,HLA A11
18,RYSIFFDY,HLA 24

# Tested on: autologous PHA-blasts
# Experiment: CTL assay of culture A3 against overlapping EBNA-6B peptides (epitope mapping)
# Conditions: peptides on autologous PHA-blasts; Fig. 4a, 4b
row,Substance,recognition by culture A3
1,"peptide 19: 20-mer overlapping peptide of EBNA-6B, residues 280-299",reactive
